Experimental data taken from the supplement of paper PMC11208160.

assay: recombinant UMI read abundance after kanamycin selection (control-corrected) (log10(CPM+1)); higher = more efficient recombination; extreme values may be limits of the assay; sequences stand for … in AGTGCAGAGAAAATCGGCCAGTTTTCTCTGCCTGCAGTCCGCATGCCGTGGGACCCCTTGGGTTCTAACCTGTTGCCTAGATTTATGCAGCGGACTGCCTTTCTCCCAAAGTGATAAACCGG…AGGTTGGTTTCACT; site = the 11-nt donor
How it was run: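 Values are reported as log10(CPM+1), obtained by converting sequencing counts to CPM, averaging replicates and scaling by control-derived factors. The counts came from recombinant UMIs amplified by PCR across the donor–target junction. These UMIs came from a pooled Escherichia coli screen of donor and donor-binding-loop pairs for the IS621 bridge recombinase, plated with IPTG (0.07 mM) plus kanamycin or left unselected, in two replicates each.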
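Further: IS621 bridge recombinase in Escherichia coli cells against a fixed T5 target plasmid.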

Sequence	recombinant UMI read abundance (log10)
CGGAATCCATGGACCGGTTTTCCCGGTAATCCGTATTTGCA (site CGGAATCCTAA)	0
CGGAATCCATGGACCGGTTTTCCCGGTAATCCGTATTTGCA (site CGGAATCCTTG)	0.628
CGGAATTCATGGACCGGTTTTCCCGGTAATCCGTATTTGAA (site CGGAATTCTTT)	1.67
CGGAATTCATGGACCGGTTTTCCCGGTAATCCGTATTTGTA (site CGGAATCCTAA)	0.00369
CGGAATTCATGGACCGGTTTTCCCGGTAATCCGTATTTGTA (site CGGAATTCTTA)	2.78
CGGACAACATGGACCGGTTTTCCCGGTAATCCGTATTTGCT (site CGGACAACTAG)	1.89
CGGACAACATGGACCGGTTTTCCCGGTAATCCGTATTTGCT (site CGGACACCTAG)	0
CGGACAACATGGACCGGTTTTCCCGGTAATCCGTATTTGCT (site CGGACAGCTAG)	0.34
CGGACAACATGGACCGGTTTTCCCGGTAATCCGTATTTGCT (site CGGACATCTAG)	2.39
CGGACATCATGGACCGGTTTTCCCGGTAATCCGTATTTGCA (site CGGACATCTAG)	0
CGGACATCATGGACCGGTTTTCCCGGTAATCCGTATTTGCA (site CGGACATCTCG)	0
CGGACATCATGGACCGGTTTTCCCGGTAATCCGTATTTGCA (site CGGACATCTGG)	0
CGGACATCATGGACCGGTTTTCCCGGTAATCCGTATTTGCA (site CGGACATCTTG)	2.76
CGGACATCATGGACCGGTTTTCCCGGTAATCCGTATTTGGT (site CGGACATCTAA)	0.416
CGGACATCATGGACCGGTTTTCCCGGTAATCCGTATTTGGT (site CGGACATCTAC)	2.13
CGGACATCATGGACCGGTTTTCCCGGTAATCCGTATTTGGT (site CGGACATCTAG)	0
CGGACATCATGGACCGGTTTTCCCGGTAATCCGTATTTGGT (site CGGACATCTAT)	1.15
CGGACCTCATGGACCGGTTTTCCCGGTAATCCGTATTTGCT (site CGGACATCTAG)	0.00704
CGGACCTCATGGACCGGTTTTCCCGGTAATCCGTATTTGCT (site CGGACCTCTAG)	3.12

Sequence	recombinant UMI read abundance (log10)
CGGACCTCATGGACCGGTTTTCCCGGTAATCCGTATTTGCT (site CGGACGTCTAG)	0.00745
CGGACCTCATGGACCGGTTTTCCCGGTAATCCGTATTTGCT (site CGGACTTCTAG)	0
CGGACGTCATGGACCGGTTTTCCCGGTAATCCGTATTTGCT (site CGGACATCTAG)	2.54
CGGACGTCATGGACCGGTTTTCCCGGTAATCCGTATTTGCT (site CGGACCTCTAG)	0
CGGACGTCATGGACCGGTTTTCCCGGTAATCCGTATTTGCT (site CGGACGTCTAG)	3.06
CGGACGTCATGGACCGGTTTTCCCGGTAATCCGTATTTGCT (site CGGACTTCTAG)	0.597
CGGACTACATGGACCGGTTTTCCCGGTAATCCGTATTTGAC (site AGGACTACTGT)	0
CGGACTACATGGACCGGTTTTCCCGGTAATCCGTATTTGAC (site CGGACTACTGT)	2.98
CGGACTACATGGACCGGTTTTCCCGGTAATCCGTATTTGAC (site GGGACTACTGT)	0
CGGACTACATGGACCGGTTTTCCCGGTAATCCGTATTTGAC (site TGGACTACTGT)	1.51
CGGACTCCATGGACCGGTTTTCCCGGTAATCCGTATTTGGT (site CGGAATCCTAA)	0.00968
CGGACTCCATGGACCGGTTTTCCCGGTAATCCGTATTTGGT (site CGGACTCCTAC)	0.215
CGGAGAGCATGGACCGGTTTTCCCGGTAATCCGTATTTGAA (site CGGAGAGCTTT)	2.27
CGGAGCACATGGACCGGTTTTCCCGGTAATCCGTATTTGCA (site CGGAGCACTTG)	2.66
CGGAGGACATGGACCGGTTTTCCCGGTAATCCGTATTTGCA (site AGGAAGACTTG)	0
CGGAGGACATGGACCGGTTTTCCCGGTAATCCGTATTTGCA (site CGGAGGACTTG)	2.78
CGGAGGCCATGGACCGGTTTTCCCGGTAATCCGTATTTGTT (site CGGAATCCTAA)	0.00304
CGGAGGCCATGGACCGGTTTTCCCGGTAATCCGTATTTGTT (site CGGAGGCCTAA)	0
CGGATAGCATGGACCGGTTTTCCCGGTAATCCGTATTTGTT (site CGGATAGCTAA)	2

Sequence	recombinant UMI read abundance (log10)
CGGCATCCATGGACCGGTTTTCCCGGTAATCCGTATTTGTG (site CGGAATCCTAA)	0
CGGCATCCATGGACCGGTTTTCCCGGTAATCCGTATTTGTG (site CGGCATCCTCA)	0.644
CGGCCGGCATGGACCGGTTTTCCCGGTAATCCGTATTTGGC (site AGGCCGGCTGC)	0
CGGCCGGCATGGACCGGTTTTCCCGGTAATCCGTATTTGGC (site CGGCCGGCTGC)	1.21
CGGCCGGCATGGACCGGTTTTCCCGGTAATCCGTATTTGGC (site GGGCCGGCTGC)	0
CGGCCGGCATGGACCGGTTTTCCCGGTAATCCGTATTTGGC (site TGGCCGGCTGC)	0
CGGCGCACATGGACCGGTTTTCCCGGTAATCCGTATTTGTA (site CGGCGCACTTA)	1.57
CGGCTACCATGGACCGGTTTTCCCGGTAATCCGTATTTGCT (site CAGCTACCTAG)	0
CGGCTACCATGGACCGGTTTTCCCGGTAATCCGTATTTGCT (site CCGCTACCTAG)	0
CGGCTACCATGGACCGGTTTTCCCGGTAATCCGTATTTGCT (site CGGCTACCTAG)	0
CGGCTACCATGGACCGGTTTTCCCGGTAATCCGTATTTGCT (site CTGCTACCTAG)	0
CGGCTGACATGGACCGGTTTTCCCGGTAATCCGTATTTGCC (site CGGCTGACTGG)	1.22
CGGCTGACATGGACCGGTTTTCCCGGTAATCCGTATTTGTT (site CGGCTGACTAA)	0.0767
CGGGAACCATGGACCGGTTTTCCCGGTAATCCGTATTTGAG (site CGGGAACCTAT)	0
CGGGAACCATGGACCGGTTTTCCCGGTAATCCGTATTTGAG (site CGGGAACCTCT)	0.013
CGGGAACCATGGACCGGTTTTCCCGGTAATCCGTATTTGAG (site CGGGAACCTGT)	0
CGGGAACCATGGACCGGTTTTCCCGGTAATCCGTATTTGAG (site CGGGAACCTTT)	0
CGGGAACCATGGACCGGTTTTCCCGGTAATCCGTATTTGCG (site CGGGAACCTCG)	0
CGGGAACCATGGACCGGTTTTCCCGGTAATCCGTATTTGTT (site CGGAATCCTAA)	0
